Data reported in patent US11584714B2 (priority 2018, dated 2023).
pKi: −log10 of the molar value. Where a name gives a salt, the structure may show the parent alone. Read-outs that look alike come from different tables or passages of the source. Square brackets hold non-standard residues; d marks the D form. Peptide text beside a SMILES is read from it. * marks the point of attachment. dChg = N[C@@H](C(=O)O)C1CCCCC1; Agmatine = N=C(N)NCCCCN*; Aze = O=C(O)[C@@H]1CCN1

Tests used:
Format in all cases: biochemical
[1] = molecular target: mMASP-2 (Mus musculus (Mouse), UniProt Q91WP0); assay: Enzymatic inhibition of mMASP-2; details: read-out: mMASP-2 Ki
[2] = molecular target: MASP-2 (CCP1-CCP2-SP) (Homo sapiens (Human), UniProt O00187); assay: biochemical
[3] = molecular target: human α-thrombin (Homo sapiens (Human), UniProt P00734); assay: Enzymatic assay for thrombin (Boc-VPR-AMC substrate); details: for pKi: read-out: Thrombin Ki; for Ki: Thrombin Ki (μM)
[4] = selectivity for MASP-2 inhibition versus thrombin
[5] = MASP-2 inhibition versus thrombin

MASP-2 (CCP1-CCP2-SP), sequence (O00187 445-686): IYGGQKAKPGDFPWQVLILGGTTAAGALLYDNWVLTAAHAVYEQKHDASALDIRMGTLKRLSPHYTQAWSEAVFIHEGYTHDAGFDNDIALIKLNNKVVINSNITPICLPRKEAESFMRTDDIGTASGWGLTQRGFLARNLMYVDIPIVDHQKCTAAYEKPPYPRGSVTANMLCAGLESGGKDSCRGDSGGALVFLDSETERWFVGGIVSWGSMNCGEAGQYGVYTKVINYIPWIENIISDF
mMASP-2, sequence (Q91WP0 20-685): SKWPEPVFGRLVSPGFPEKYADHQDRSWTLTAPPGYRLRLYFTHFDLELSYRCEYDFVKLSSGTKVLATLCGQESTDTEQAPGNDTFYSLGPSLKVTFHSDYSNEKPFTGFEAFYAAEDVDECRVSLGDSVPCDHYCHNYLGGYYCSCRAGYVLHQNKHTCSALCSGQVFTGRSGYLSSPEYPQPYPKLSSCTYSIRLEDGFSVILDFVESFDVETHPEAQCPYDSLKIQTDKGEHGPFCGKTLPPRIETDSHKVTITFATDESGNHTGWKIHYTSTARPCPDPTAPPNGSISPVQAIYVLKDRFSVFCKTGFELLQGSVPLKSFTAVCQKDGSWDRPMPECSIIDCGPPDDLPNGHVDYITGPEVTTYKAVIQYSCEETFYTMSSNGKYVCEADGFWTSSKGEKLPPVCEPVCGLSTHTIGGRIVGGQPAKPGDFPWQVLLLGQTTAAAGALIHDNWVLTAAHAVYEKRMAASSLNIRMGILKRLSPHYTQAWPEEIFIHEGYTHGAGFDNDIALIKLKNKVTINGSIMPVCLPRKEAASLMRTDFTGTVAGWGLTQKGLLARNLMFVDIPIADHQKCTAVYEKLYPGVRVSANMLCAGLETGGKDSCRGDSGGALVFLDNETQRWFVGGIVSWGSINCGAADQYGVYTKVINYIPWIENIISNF

SMILES | pKi [1] | pKi ([2]; read-out: MASP-2 Ki) | MASP-2 vs. thrombin selectivity [2, 4] | pKi [3] | MASP-2 vs. thrombin selectivity [2, 5] | Ki [3] [µM] | pKi [2]
Cc1nc(N)ccc1CNC(=O)[C@H](C)NC(=O)[C@H]1C[C@@H](C(C)c2ccccc2)CN1 (mixture of isomers) [compound 1344, (2R,4S)—N—((S)-1-(((6-Amino-2-methylpyridin-3-yl)methyl)amino)-1-oxopropan-2-yl)-4-((±)-1-phenylethyl)pyrrolidine-2-carboxamide Dihydrochloride] | > 6.30 | > 6.30 | **** (≥100-fold) | 5.00 to 5.60 |  |  | 
N=C(N)NCCCCNC(=O)[C@@H]1CCN1C(=O)[C@H](N)C1CCCCC1 [compound 1006, (S)-1-((R)-2-Amino-2-cyclohexylacetyl)-N-(4-guanidinobutyl)azetidine-2-carboxamide Dihydrochloride] (H-[dChg]-[Aze]-Agmatine) | > 6.30 | > 6.30 |  | > 6.30 | −− (less than 1.0-fold) |  | 
CN[C@H](CCc1ccccc1)C(=O)N[C@@H](C)C(=O)NCc1ccc(C(=N)N)cc1 [compound 1044] | > 6.30 | > 6.30 |  | > 6.30 | ** (5.0 to 25-fold) |  | 
Cc1ccccc1CC[C@@H](N)C(=O)N[C@@H](C)C(=O)NCc1ccc(C(=N)N)cc1 [compound 1045] | > 6.30 | > 6.30 |  | > 6.30 | ** (5.0 to 25-fold) |  | 
Cc1cccc(CC[C@@H](N)C(=O)N[C@@H](C)C(=O)NCc2ccc(C(=N)N)cc2)c1 [compound 1046] | > 6.30 | > 6.30 |  | > 6.30 | ** (5.0 to 25-fold) |  | 
C[C@H](NC(=O)[C@H](N)CCc1cccc(F)c1)C(=O)NCc1ccc(C(=N)N)cc1 [compound 1048] | > 6.30 | > 6.30 |  | > 6.30 | ** (5.0 to 25-fold) |  | 
Cc1cccc(CC[C@@H](N)C(=O)N[C@@H](C)C(=O)NCc2ccc(C(=N)N)cc2)c1C [compound 1072] | > 6.30 | > 6.30 |  | > 6.30 | ** (5.0 to 25-fold) |  | 
Cc1cc(C)cc(CC[C@@H](N)C(=O)N[C@@H](C)C(=O)NCc2ccc(C(=N)N)cc2)c1 [compound 1073] | > 6.30 | > 6.30 |  | > 6.30 | ** (5.0 to 25-fold) |  | 
COc1ccccc1CC[C@@H](N)C(=O)N[C@@H](C)C(=O)NCc1ccc(C(=N)N)cc1 [compound 1074] | > 6.30 | > 6.30 |  | > 6.30 | ** (5.0 to 25-fold) |  | 
COc1cccc(CC[C@@H](N)C(=O)N[C@@H](C)C(=O)NCc2ccc(C(=N)N)cc2)c1 [compound 1075] | > 6.30 | > 6.30 |  | > 6.30 | ** (5.0 to 25-fold) |  | 
C[C@H](NC(=O)[C@H](N)CCc1ccc(Cl)cc1)C(=O)NCc1ccc(C(=N)N)cc1 [compound 1080] | > 6.30 | > 6.30 |  | > 6.30 | ** (5.0 to 25-fold) |  | 
C[C@H](NC(=O)[C@H](N)Cc1cccc2ccccc12)C(=O)NCc1ccc(C(=N)N)cc1 [compound 1092] | > 6.30 | > 6.30 |  | > 6.30 | −− (less than 1.0-fold) |  | 
C[C@H](NC(=O)[C@@H](CCc1ccccc1)NC1CCC1)C(=O)NCc1ccc(C(=N)N)cc1 [compound 1108] | > 6.30 | > 6.30 |  | > 6.30 | * (1.0 to 5.0-fold) |  | 
CCCCCN[C@H](CCc1ccccc1)C(=O)N[C@@H](C)C(=O)NCc1ccc(C(=N)N)cc1 [compound 1125] | > 6.30 | > 6.30 |  | > 6.30 | −− (less than 1.0-fold) |  | 
C[C@H](NC(=O)[C@@H](CCc1ccccc1)NCc1ccc[nH]1)C(=O)NCc1ccc(C(=N)N)cc1 [compound 1128] | > 6.30 | > 6.30 |  | > 6.30 | * (1.0 to 5.0-fold) |  | 
C[C@H](NC(=O)[C@@H](CCc1ccccc1)NCc1ccccc1)C(=O)NCc1ccc(C(=N)N)cc1 [compound 1134] | > 6.30 | > 6.30 |  | > 6.30 | −− (less than 1.0-fold) |  | 
C[C@H](NC(=O)[C@@H](CCc1ccccc1)NCc1ccc(N2CCOCC2)cc1)C(=O)NCc1ccc(C(=N)N)cc1 [compound 1149] | > 6.30 | > 6.30 |  | > 6.30 | ** (5.0 to 25-fold) |  | 
C[C@@H](NC(=O)[C@H](N)CCc1ccccc1)C(=O)NCc1ccc2nc(N)[nH]c2c1 [compound 1170] | > 4.60 | > 6.30 |  | < 4.60 | **** (>100-fold) |  | 
C[C@H](NC(=O)[C@H](CCc1ccccc1)NCc1c[nH]c2ccccc12)C(=O)NCc1ccc(C(=N)N)cc1 [compound 1223] | > 6.30 | > 6.30 |  | > 6.30 | *** (25 to 100-fold) |  | 
Cc1cccc([C@H]2CCN[C@@H](C(=O)N[C@@H](C)C(=O)NCc3ccc(C(=N)N)cc3)C2)c1 [compound 1231, (2R,4S)—N—((S)-1-((4-Carbamimidoylbenzyl)amino)-1-oxopropan-2-yl)-4-(m-tolyl)piperidine-2-carboxamide] | > 6.30 | > 6.30 | **** (≥100-fold) |  |  | 2.5 to 10 | 
C[C@H](NC(=O)[C@@H](CCc1ccccc1)NCc1ccc(-c2nnn[nH]2)cc1)C(=O)NCc1ccc(C(=N)N)cc1 [compound 1233, (R)-2-((4-(1H-Tetrazol-5-yl)benzyl)amino)-N—((S)-1-((4-carbamimidoylbenzyl)amino)-1-oxopropan-2-yl)-4-phenylbutanamide] | > 6.30 | > 6.30 | * (≥1.0 to <5.0-fold) |  |  | 0.5 to 2.5 | 
C[C@H](NC(=O)[C@@H](CCc1ccccc1)NCc1ccc(OCCO)cc1)C(=O)NCc1ccc(C(=N)N)cc1 [compound 1236, (R)—N—((S)-1-((4-Carbamimidoylbenzyl)amino)-1-oxopropan-2-yl)-2-((4-(2-hydroxyethoxy)benzyl)amino)-4-phenylbutanamide] | > 6.30 | > 6.30 | * (≥1.0 to <5.0-fold) | > 6.30 |  |  | 
COc1ccc(-c2c[nH]c(C(=O)N[C@@H](C)C(=O)NCc3ccc(C(=N)N)cc3)c2)cc1 [compound 1238, (S)—N-(1-((4-Carbamimidoylbenzyl)amino)-1-oxopropan-2-yl)-4-(4-methoxyphenyl)-1H-pyrrole-2-carboxamide] | > 6.30 | > 6.30 | *** (≥25 to <100-fold) |  |  | 2.5 to 10 | 
Cc1cccc([C@@H]2CCN[C@@H](C(=O)N[C@@H](C)C(=O)NCc3ccc(C(=N)N)cc3)C2)c1 [compound 1241, (2R,4R)—N—((S)-1-((4-Carbamimidoylbenzyl)amino)-1-oxopropan-2-yl)-4-(m-tolyl)piperidine-2-carboxamide] | > 6.30 | > 6.30 | * (≥1.0 to <5.0-fold) | > 6.30 |  |  | 
C[C@H](NC(=O)[C@H]1C[C@H](c2ccccc2)CN1)C(=O)NCc1cc(Cl)ccc1O [compound 1242, (2R,4R)—N—((S)-1-((5-Chloro-2-hydroxybenzyl)amino)-1-oxopropan-2-yl)-4-phenylpyrrolidine-2-carboxamide] | 5.00 to 5.60 |  | ** (≥5.0 to <25-fold) |  |  | 2.5 to 10 | 5.60 to 6.30
Cc1nc(N)ccc1CNC(=O)[C@H](C)NC(=O)[C@H](N)CCc1ccccc1 [compound 1245, (R)-2-Amino-N—((S)-1-(((6-amino-2-methylpyridin-3-yl)methyl)amino)-1-oxopropan-2-yl)-4-phenylbutanamide] | 4.60 to 5.00 | > 6.30 | **** (≥100-fold) |  |  | 10 to 25 | 
Cc1cccc([C@H]2CN[C@@H](C(=O)N[C@@H](C)C(=O)NCc3ccc(C(=N)N)cc3)C2)c1 [compound 1247, (2R,4S)—N—((S)-1-((4-Carbamimidoylbenzyl)amino)-1-oxopropan-2-yl)-4-(m-tolyl)pyrrolidine-2-carboxamide] | > 6.30 | > 6.30 | *** (≥25 to <100-fold) |  |  | 0.5 to 2.5 | 
Cc1ccc([C@@H]2CCN[C@@H](C(=O)N[C@@H](C)C(=O)NCc3ccc(C(=N)N)cc3)C2)cc1 [compound 1248, (2R,4R)—N—((S)-1-((4-Carbamimidoylbenzyl)amino)-1-oxopropan-2-yl)-4-(p-tolyl)piperidine-2-carboxamide] | > 6.30 | > 6.30 | ** (≥5.0 to <25-fold) |  |  | 0.5 to 2.5 | 
Cc1ccc([C@H]2CCN[C@@H](C(=O)N[C@@H](C)C(=O)NCc3ccc(C(=N)N)cc3)C2)cc1 [compound 1249, (2R,4S)—N—((S)-1-((4-Carbamimidoylbenzyl)amino)-1-oxopropan-2-yl)-4-(p-tolyl)piperidine-2-carboxamide] | > 6.30 | > 6.30 | **** (≥100-fold) |  |  | 10 to 25 | 
C[C@H](NC(=O)[C@@H](CCc1ccccc1)NCc1ccc(N2CCN(S(C)(=O)=O)CC2)cc1)C(=O)NCc1ccc(C(=N)N)cc1 [compound 1250, (R)—N—((S)-1-((4-Carbamimidoylbenzyl)amino)-1-oxopropan-2-yl)-2-((4-(4-(methylsulfonyl)piperazin-1-yl)benzyl)amino)-4-phenylbutanamide] | > 6.30 | > 6.30 | * (≥1.0 to <5.0-fold) | > 6.30 |  |  | 
